Series [1] concerns the target T1, TDP1 (Homo sapiens, UniProt Q9NUW8).
T1 construct: made in house
The series can be described thus: Real-time fluorescence detection of TDP1 activity (FAM/BHQ1 oligonucleotide biosensor). It counts as biochemical. From the text: To determine the inhibitory properties of the new compounds against TDP1 we used a previously designed real-time oligonucleotide biosensor with 5(6)-carboxyfluorescein (FAM) at the 5′ end and fluorophore quencher BHQ1 (Black Hole Quencher-1) at the 3′-end.
The biosensor, 16-mer DNA oligonucleotide (5′-[FAM] AAC GTC AGGGTC TTC C [BHQ]-3′) was synthesized in the Laboratory of Nucleic Acid Chemistry at the Institute of Chemical Biology and Fundamental Medicine (Novosibirsk, Russia). Real-time fluorescence detection of TDP1 enzyme activity was carried out as described. The recombinant TDP1 was purified as described, using plasmid pET 16B-TDP1, kindly provided by Dr. K.W. Caldecott (University of Sussex, Brighton, UK). To the reaction mixture (200 μL) containing 50 nM oligonucleotide in buffer (50 mM Tris-HCl, pH 8.0, 50 mM NaCl, and 7 mM β-mercaptoethanol), varied concentrations of the tested compounds and purified TDP1 in a final concentration of 1.5 nM were added.
Fluorescence intensity was measured (Ex485/Em520 nm) using POLARstar OPTIMA fluorimeter (BMG LABTECH, GmbH, Ortenberg, Germany) every 1 min for 7 min. The half maximal inhibitory concentrations (IC50) were determined using a six-point concentration response curve and calculated using MARS Data Analysis 2.0 (BMG LABTECH). At least three independent experiments were carried out to obtain the IC50 values.

Series [2] can be described thus: Cytotoxicity of compounds, MTT test, HeLa. The settings on record: human, HeLa cells, compound alone. It counts as cell-based. The protocol:
(§1) The cytotoxicity of the compounds to HeLa (human cervical cancer) and HEK293A (human embryonic kidney) cell lines was determined using standard colorimetric MTT-test. Cells were seeded in 96-well plates (5000 cells per well) and cultured in DMEM medium (Invitrogen, Carlsbad, CA, USA) supplemented with 10% fetal bovine serum (FBS) (Invitrogen), penicillin (100 units/mL), and streptomycin (100 μg/mL) at 37 °C and 5% CO2 in a humid atmosphere. Control wells contained 1% DMSO. At 30–50% confluence, the tested compounds were added to the medium. To determine the cytotoxicity of Tdp1 inhibitors, the cells were allowed to attach for 24 h and were treated with compounds with concentrations ranging from 1 to 100 μM for 72 h at 37 °C. All measurements were repeated three times.

A short description of series [3]: Cytotoxicity of compounds, MTT test, HEK293A. It counts as cell-based. The settings on record: human, HEK293A cells, compound alone, read-out: CC50 HEK 293A. The protocol:
as §1
Background: Formazan colour is commonly taken as a measure of viable cells.

The test system of series [4] is HeLa cells. The series can be described thus: Effect of compounds on topotecan cytotoxicity, MTT test, HeLa. It counts as cell-based, human. The protocol: as §1
(§2) To study the effect of the compounds on the cytotoxicity of topotecan, an aqueous solution of topotecan was used at concentrations from 0.2 to 2 μM for HeLa cells and from 0.05 to 0.5 μM for HEK293A cells against the background of 10 μM of the compounds. Cells treated with compounds alone without topotecan were used as controls.

Series [5] is described as follows: Effect of compounds on topotecan cytotoxicity, MTT test, HEK293A. The format is cell-based, human. The settings on record: human. The protocol:
as §1, §2

This note sets out measurements from article PMC10253161, “New 5-Hydroxycoumarin-Based Tyrosyl-DNA Phosphodiesterase I Inhibitors Sensitize Tumor Cell Line to Topotecan” (International Journal of Molecular Sciences, 2023).

Molecules are shown by their SMILES. Where two headings read alike, the source gives them in different places.

T1 sequence (Q9NUW8 whole entry): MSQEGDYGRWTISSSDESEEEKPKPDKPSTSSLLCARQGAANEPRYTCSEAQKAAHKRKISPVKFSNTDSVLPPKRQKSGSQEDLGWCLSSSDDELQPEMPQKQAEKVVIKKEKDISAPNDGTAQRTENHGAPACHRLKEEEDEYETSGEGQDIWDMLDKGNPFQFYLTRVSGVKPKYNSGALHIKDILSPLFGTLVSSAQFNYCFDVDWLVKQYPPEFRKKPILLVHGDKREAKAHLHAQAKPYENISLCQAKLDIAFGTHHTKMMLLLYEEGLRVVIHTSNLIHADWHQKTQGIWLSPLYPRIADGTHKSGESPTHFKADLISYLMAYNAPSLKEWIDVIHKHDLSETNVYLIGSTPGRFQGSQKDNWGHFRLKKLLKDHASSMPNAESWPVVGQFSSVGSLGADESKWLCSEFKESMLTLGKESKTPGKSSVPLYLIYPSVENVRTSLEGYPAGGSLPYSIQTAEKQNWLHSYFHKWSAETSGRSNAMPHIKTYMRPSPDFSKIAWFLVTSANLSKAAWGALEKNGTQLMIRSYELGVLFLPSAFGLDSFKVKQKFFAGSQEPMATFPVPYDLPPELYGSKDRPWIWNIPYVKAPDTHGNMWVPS

In general, IC50 refers to the concentration that inhibits the measured activity by half. As usually defined, the CC50 is the concentration giving 50% cytotoxicity. Take `CC(C)=CCC/C(C)=C/COc1cccc2oc(=O)c(-c3ccc(F)cc3)c(C)c12` [33a, (E)-5-(3,7-Dimethylocta-2,6-dienyloxy)-3-(4-fluorophenyl)-4-methyl-2H-chromen-2-one]: the half-inhibitory concentration (IC50) in series [1] (Table 1, recombinant TDP1 1.5 nM, 50 nM oligonucleotide, read-out: TDP1 inhibitory activities (IC50)) worked out at 130 ± 30 nM; in series [1] (Table 2, TDP1 IC50, partly rounded, read-out: IC50), 130 ± 30 nM. Moreover, the CC50 at 72 h in series [2] and in series [3] was more than 100000 nM each time. Besides, the “Effect on the cytotoxicity of topotecan, HeLa” value in series [4] (10 µM compound, result in words) is listed as “significantly increased cytotoxicity of topotecan”.

In the case of `CC[C@@]1(O)C(=O)OCc2c1cc1n(c2=O)Cc2cc3c(CN(C)C)c(O)ccc3nc2-1` [Tpc, topotecan], the CC50 in series [4] (Homo sapiens, HeLa, read-out: Tpc CC50 HeLa) worked out at 880 ± 240 nM; in series [5], 40 ± 12 nM.
